# Structures can show the parent of a compound that is named as a salt. Where two headings read alike, the source gives them in different places.
# Experiments:
# [1] = system: NCI-H292 lung cancer cells; assay: FDA drug screening, complete media vs cholesterol-free media with simvastatin (TABLE 2); assay type: cell-based, human
# [2] = system: NCI-H292 lung cancer cells; assay: FDA drug screening, complete media vs cholesterol-free media without statin (TABLE 1); assay type: cell-based, human
# [3] = Complete minus Cholesterol-free, […]
# [4] = NCI-H292 cells, cholesterol-free media without statin
# [5] = NCI-H292 cells, FDA drug library screen, cholesterol-free media with simvastatin 0.04 μM
# [6] = NCI-H292 cells, FDA drug library screen, complete media
# [7] = complete media vs cholesterol-free media + simvastatin (0.04 μM), >0 enhanced anti-cancer activity, about 0 neutral, <0 antagonist
# [8] = Complete minus Cholesterol-free, >0 enhanced anti-cancer activity, about 0 neutral, <0 antagonist
# [9] = NCI-H292 cells, cholesterol-free media without statin, FDA drug library screen
# [10] = NCI-H292 cells, complete media, FDA drug library screen
# [11] = NCI-H292 cells, cholesterol-free media with simvastatin 0.04 μM, cell growth value in FDA drug screen
# [12] = NCI-H292 cells, complete media, cell growth value in FDA drug screen
# [13] = complete media minus cholesterol-free media + simvastatin, >0 enhanced anti-cancer activity, about 0 neutral, <0 antagonist
# [14] = Complete minus Cholesterol-free, greater than 0 enhanced anti-cancer activity, about 0 neutral, below 0 antagonists
# [15] = NCI-H292 cells in cholesterol-free media without statin
# [16] = NCI-H292 cells in complete media
# [17] = NCI-H292 cells, drug in cholesterol-free media with simvastatin 0.04 μM
# [18] = NCI-H292 cells, drug in complete media
# [19] = Complete minus Cholesterol-free, greater than 0 enhanced anti-cancer activity, about 0 neutral, below 0 antagonist
# [20] = NCI-H292 cells, FDA drug library screen, cholesterol-free media without statin
# [21] = complete vs cholesterol-free media, >0 enhanced anti-cancer activity, about 0 neutral, <0 antagonist
# [22] = NCI-H292 cells, cholesterol-free media with simvastatin 0.04 μM, FDA drug library screen (TABLE 2)
# [23] = NCI-H292 cells, complete media, FDA drug library screen (TABLE 2)
# [24] = complete media minus cholesterol-free media + simvastatin (0.04 μM), >0 enhanced anti-cancer activity, about 0 neutral, <0 antagonist
# [25] = complete media vs cholesterol-free media + simvastatin (0.04 μM), […]
molecule,measurement,setting,value
Heparin (Lithium salt),Complete Media,"[1]; NCI-H292 cells, complete media, […]",1.136
same,Difference,"[1]; complete media minus cholesterol-free media + simvastatin, […]",0.08
same,Difference,[2]; [3],−0.22
same,Cholesterol-free,[2]; [4],1.174
same,Complete,"[2]; NCI-H292 cells, complete media",0.9566
C[C@@H]1CC(=O)NN=C1c1ccc(NN=C(C#N)C#N)cc1 [Levosimendan],Cholesterol-free media + simvastatin (0.04 μM),[1]; [5],1.165
same,Complete Media,[1]; [6],1.044
same,Difference,[1]; [7],−0.12
same,Difference,[2]; [8],−0.06
same,Cholesterol-free,[2]; [9],1.195
same,Complete,[2]; [10],1.131
COc1ccccc1N1CCN(CC(O)COc2cccc3ccccc23)CC1 (centres unmarked) [Naftopidil],Cholesterol-free media + simvastatin (0.04 μM),[1]; [11],0.6892
same,Complete Media,[1]; [12],0.763
same,Difference,[1]; [13],0.07
same,Difference,[2]; [14],−0.98
same,Cholesterol-free,[2]; [15],1.94
same,Complete,[2]; [16],0.9592
Cc1ccc(C(=O)c2cc(O)c(O)c([N+](=O)[O-])c2)cc1 [Tolcapone],Cholesterol-free media + simvastatin (0.04 μM),[1]; [17],1.114
same,Complete Media,[1]; [18],0.8994
same,Difference,[1]; [7],−0.21
same,Difference,[2]; [19],−0.19
same,Cholesterol-free,[2]; [20],1.149
same,Complete,[2]; [6],0.9627
CCOC(=O)[C@H](CCc1ccccc1)N[C@@H](C)C(=O)N(CC(=O)O)C1Cc2ccccc2C1 [Delapril (hydrochloride)],Cholesterol-free media + simvastatin (0.04 μM),[1]; [11],0.7815
same,Complete Media,[1]; [12],0.8772
same,Difference,[1]; [13],0.10
same,Difference,[2]; [8],−0.30
same,Cholesterol-free,[2]; [4],1.222
same,Complete,"[2]; NCI-H292 cells, complete media",0.9182
Cc1ccc(C(=O)C(C)CN2CCCCC2)cc1 (centres unmarked) [Tolperisone (hydrochloride)],Cholesterol-free media + simvastatin (0.04 μM),[1]; [11],0.9156
same,Complete Media,[1]; [12],0.9664
same,Difference,[1]; [13],0.05
same,Difference,[2]; [8],0.07
same,Cholesterol-free,[2]; [9],1.37
same,Complete,[2]; [10],1.436
C=CCOc1ccccc1OCC(O)CNC(C)C (centres unmarked) [Oxprenolol (hydrochloride)],Cholesterol-free media + simvastatin (0.04 μM),[1]; [11],0.8718
same,Complete Media,[1]; [12],0.9135
same,Difference,[1]; [13],0.04
same,Cholesterol-free,[2]; [9],1.177
same,Complete,[2]; [10],1.262
same,Difference,[2]; [21],0.09
CC1CNc2c(cccc2S(=O)(=O)N[C@@H](CCCNC(=N)N)C(=O)N2CC[C@@H](C)C[C@@H]2C(=O)O)C1 (some centres unmarked) [Argatroban (monohydrate)],Cholesterol-free media + simvastatin (0.04 μM),[1]; [17],1.179
same,Complete Media,[1]; [18],0.9367
same,Difference,[1]; [7],−0.24
same,Difference,[2]; [19],−0.08
same,Cholesterol-free,[2]; [20],1.232
Pazufloxacin (mesylate),Cholesterol-free media + simvastatin (0.04 μM),[1]; [22],0.9357
same,Complete Media,[1]; [23],0.9248
same,Difference,[1]; [24],−0.01
same,Difference,[2]; [8],−0.28
same,Cholesterol-free,[2]; [4],0.9858
same,Complete,"[2]; NCI-H292 cells, complete media",0.7051
Cn1ncnc1[C@H]1c2n[nH]c(=O)c3cc(F)cc(c23)N[C@@H]1c1ccc(F)cc1 [Talazoparib],Cholesterol-free media + simvastatin (0.04 μM),[1]; [11],0.3041
same,Complete Media,[1]; [12],0.3489
same,Difference,[1]; [13],0.04
same,Difference,[2]; [8],−0.06
same,Cholesterol-free,[2]; [9],0.2349
same,Complete,[2]; [10],0.179
C=CCN1C[C@H](C(=O)N(CCCN(C)C)C(=O)NCC)C[C@@H]2c3cccc4[nH]cc(c34)C[C@H]21 [Cabergoline],Cholesterol-free media + simvastatin (0.04 μM),[1]; [17],1.138
same,Complete Media,[1]; [18],0.8998
same,Difference,[1]; [7],−0.24
same,Difference,[2]; [14],−0.59
same,Cholesterol-free,[2]; [15],1.769
same,Complete,[2]; [16],1.184
Hyaluronidase,Cholesterol-free media + simvastatin (0.04 μM),"[1]; NCI-H292 cells, FDA library drug in cholesterol-free media with simvastatin 0.04 μM",1.288
same,Complete Media,"[1]; NCI-H292 cells, FDA library drug in complete media",1.022
same,Difference,[1]; [25],−0.27
same,Difference,[2]; [3],−0.05
same,Cholesterol-free,[2]; [9],0.9036
same,Complete,[2]; [10],0.8508
O[C@H]([C@H](O)[C@@H]1CO1)[C@H]1CO1 [VAL-083],Cholesterol-free media + simvastatin (0.04 μM),[1]; [17],0.879
same,Complete Media,[1]; [18],0.7017
same,Difference,[1]; [25],−0.18
same,Cholesterol-free,[2]; [4],1.036
same,Complete,"[2]; NCI-H292 cells, complete media",0.6339
same,Difference,"[2]; complete vs cholesterol-free media, […]",−0.40
CCCNC(=O)NS(=O)(=O)c1ccc(Cl)cc1 [Chlorpropamide],Cholesterol-free media + simvastatin (0.04 μM),[1]; [17],1.114
same,Complete Media,[1]; [18],0.9308
same,Difference,[1]; [7],−0.18
same,Difference,[2]; [14],−0.51
same,Cholesterol-free,[2]; [15],1.49
same,Complete,[2]; [16],0.9801
CCCCc1oc2ccc(NS(C)(=O)=O)cc2c1C(=O)c1ccc(OCCCN(CCCC)CCCC)cc1 [Dronedarone (Hydrochloride)],Complete Media,[1]; [12],0.8231
same,Difference,[1]; [13],0.06
same,Cholesterol-free,[2]; [9],0.4604
same,Difference,[2]; [21],0.28
C[C@]12CCC(=O)C=C1CC[C@@H]1[C@@H]2[C@@H](O)C[C@@]2(C)[C@H]1CC[C@]2(O)C(=O)COC(=O)CCC1CCCC1 [Hydrocortisone cypionate],Cholesterol-free media + simvastatin (0.04 μM),[1],0.7228
same,Complete Media,[1],0.7215
same,Difference,[1],0.00
same,Cholesterol-free,[2],1.099
same,Complete,[2],0.6914
same,Difference,[2],−0.41
Brompheniramine (maleate),Cholesterol-free media + simvastatin (0.04 μM),[1]; [5],0.8932
same,Complete Media,[1]; [6],1.189
same,Difference,[1]; [13],0.30
same,Difference,[2]; [14],−0.54
same,Cholesterol-free,[2]; [15],1.443
same,Complete,[2]; [16],0.9065
Cn1c(=O)c2[nH]cnc2n(C)c1=O [Theophylline],Cholesterol-free media + simvastatin (0.04 μM),[1]; [5],1.182
same,Complete Media,[1]; [6],1.026
same,Difference,[1]; [7],−0.16
same,Cholesterol-free,[2]; [4],1.592
same,Complete,"[2]; NCI-H292 cells, complete media",1.176
same,Difference,"[2]; complete vs cholesterol-free media, greater than 0 enhanced anti-cancer activity, about 0 neutral, below 0 antagonists",−0.42
CCOC(=O)[C@H](C)C[C@@H](Cc1ccc(-c2ccccc2)cc1)NC(=O)CCC(=O)O [Sacubitril hemicalcium salt],Cholesterol-free media + simvastatin (0.04 μM),[1]; [22],1.02
same,Complete Media,[1]; [23],1
same,Difference,[1]; [24],−0.02
same,Cholesterol-free,[2]; [9],0.6536
same,Complete,[2]; [10],1.134
same,Difference,[2]; [21],0.48
CC1(C)[C@@H](O[C@H]2O[C@H](C(=O)O)[C@@H](O)[C@H](O)[C@H]2O[C@@H]2O[C@H](C(=O)O)[C@@H](O)[C@H](O)[C@H]2O)CC[C@]2(C)[C@H]3C(=O)C=C4[C@@H]5C[C@@](C)(C(=O)O)CC[C@]5(C)CC[C@@]4(C)[C@]3(C)CC[C@@H]12 [Glycyrrhizic acid],Cholesterol-free media + simvastatin (0.04 μM),[1]; [5],1.042
same,Complete Media,[1]; [6],0.907
same,Difference,[1]; [7],−0.13
same,Difference,[2]; [19],−0.08
same,Cholesterol-free,[2]; [20],1.146
same,Complete,[2]; [6],1.061
CCCCN1CCCCC1C(=O)Nc1c(C)cccc1C (centres unmarked) [Bupivacaine (hydrochloride)],Cholesterol-free media + simvastatin (0.04 μM),[1]; [17],1.059
same,Complete Media,[1]; [18],0.8922
same,Difference,[1]; [7],−0.17
same,Difference,[2]; [19],−0.15
same,Cholesterol-free,[2]; [20],1.158
same,Complete,[2]; [6],1.01
c1cnc(N2CCN(Cc3ccc4c(c3)OCO4)CC2)nc1 [Piribedil],Cholesterol-free media + simvastatin (0.04 μM),[1]; [17],1.189
same,Complete Media,[1]; [18],0.9878
same,Difference,[1]; [7],−0.20
same,Cholesterol-free,[2]; [9],0.8521
same,Complete,[2]; [10],1.367
same,Difference,[2]; [21],0.51
Pergolide (mesylate),Cholesterol-free media + simvastatin (0.04 μM),[1],0.9579
same,Complete Media,[1],1.079
same,Difference,[1],0.12
same,Cholesterol-free,[2],1.027
same,Complete,[2],0.8214
same,Difference,[2],−0.21
